The record followed here is PubChem BioAssay (NCI).

Common to all, as to test: NCI tumour cell line growth inhibition, 48 h
The subject of assay [1] is A498 renal.
The subject of assay [2] is OVCAR-5 ovarian.
Assay [3] deals with KM12 colon.
The subject of assay [4] is HCT-116 colon.
Assay [5] has as its system CCRF-CEM leukemia.
In assay [6] the test system is SW-620 colon.
For assay [7], the system named is HCT-15 colon.
For assay [8], the system named is MDA-MB-435.
In assay [9] the test system is COLO 205 colon.
For assay [10], the system named is UACC-257 melanoma.

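Cultured in 96-well plates, cells were exposed to test compound for 48 hours across five concentrations. GI50 is the concentration that inhibits growth by half. TGI is the concentration that stops growth completely.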

Consider `CCCCCCNC(=O)Oc1ccc(/C(=C(/C)Cc2ccc(OC)cc2)c2ccc(OCCCN(C)C)cc2)cc1`, for which the GI50 is 14.1 µM in assay [1]; 15.7 µM in [2]; 13.9 µM in assay [3]; 12.6 µM in [4]; 16.3 µM in assay [5]; 16.4 µM in [6]. Also, the GI50 in [7] is 8.71 µM; in assay [8] it was 13.8 µM; in assay [9] it was 14.6 µM; in assay [10], 19.3 µM. In addition, the TGI in assay [1] was determined as 27.3 µM; in assay [2], 29.8 µM; in assay [3], 27.7 µM; in [4], 25.7 µM; in assay [5], 33.8 µM; in assay [6], 31.2 µM. The TGI stood at 21.9 µM in assay [7], 27.1 µM in [8], 29.7 µM in [9] and 35.3 µM in assay [10].

Regarding `COc1cc(-c2cc(-c3ccc(Nc4ccnc5cc(Cl)ccc45)cc3)nc(N3CCOCC3)n2)cc(OC)c1OC`, the GI50 in assay [1] is 28.2 µM; in assay [2], 2.19 µM; in [4], 1.36 µM; in assay [5], 1.54 µM; in assay [6], 1.28 µM; in assay [7] it was 1.52 µM. The GI50 is 1.75 µM in [8] and 2.79 µM in assay [9]. In addition, the TGI was found to be 74.4 µM in [1]; 4.72 µM in assay [2]; 3.34 µM in [4]; 6.17 µM in assay [5]; 3.45 µM in assay [6]; 3.58 µM in assay [7]. Moreover, the TGI in [8] was 3.48 µM; in [9], 9.36 µM.

For the molecule `FC(F)(F)c1ccc(-c2cnc(-n3cc(COCCN4CCCCC4)nn3)nc2NC2CCCCCC2)cc1`, the GI50 in [1] was 3.56 µM; in [2] it was 4.72 µM; in assay [3], 4.27 µM; in assay [4] it was 3.32 µM; in assay [5], 4.23 µM; in assay [6], 3.79 µM. Besides, the values for the GI50 in assay [7], in assay [8] and in [9] were 4.02 µM, 3.74 µM and 3.86 µM, respectively. The TGI is 7.04 µM in assay [1]; 8.79 µM in [2]; 8.08 µM in assay [3]; 7 µM in assay [4]; 10.7 µM in [5]; 7.95 µM in assay [6]. Also, the figures for the TGI in [7], in assay [8] and in assay [9] were 8.66 µM, 7.76 µM and 8.57 µM, respectively.

For `COC(=O)C1OC2(CCCC3CC32)O[C@H]1C(=O)OC` (stereo not given in full), the TGI in [2], in assay [3], in [4], in assay [5], in assay [6] and in [7] was greater than 100 µM throughout. Further, the TGI in assay [8], in assay [9] and in assay [10] was greater than 100 µM in each case.

With `Cc1cn(C2C=CC(CO)O2)c(=O)[nH]c1=O` (stereo not given), the TGI in [2], in [3], in assay [4], in assay [5], in assay [6] and in [7] was greater than 1000 µM each time. For the same molecule, the TGI in assay [8], in assay [9] and in assay [10] was greater than 1000 µM each time.

Take `Nc1cc(O)ccc1N=Nc1ccc(-c2nc3ccccc3[nH]2)cc1`: the GI50 in [2] was greater than 100 µM; in [3], 5.07 µM; in assay [4], 41.2 µM; in assay [6] it was 52.9 µM; in assay [7], 37.2 µM; in assay [8], 17.1 µM. The GI50 in [9] is 34.9 µM; in assay [10], 65.3 µM. Besides, the TGI was greater than 100 µM in [2]; greater than 100 µM in assay [3]; greater than 100 µM in assay [4]; greater than 100 µM in assay [6]; greater than 100 µM in assay [7]; 73.5 µM in [8]. For the same molecule, the TGI in assay [9] and in assay [10] was greater than 100 µM each time.

As to `Clc1ccc(-c2csc(Nc3cccc(-c4csc(-c5ccccc5)n4)c3)n2)cc1`, the GI50 in assay [1] is 15.9 µM; in assay [3] it was 15.7 µM; in assay [4], 8.97 µM; in assay [6], 12.2 µM; in assay [7] it was 6.01 µM; in assay [8], 9.05 µM. The GI50 is 10 µM in [9] and 14.9 µM in assay [10]. For the same molecule, the TGI in assay [1] was 28.3 µM; in [3], greater than 50 µM; in assay [4] it was 18.5 µM; in [6], 28.8 µM; in assay [7], 14.7 µM; in assay [8], 21.6 µM. In addition, the TGI worked out at 23.1 µM in assay [9] and 29 µM in [10].

As to `Oc1ccc(O)c(-c2cc(-c3ccc(Cl)cc3)nn2-c2ccccc2)c1`, the GI50 in [1] was 0.755 µM; in [2], 3.11 µM; in assay [3], 4.14 µM; in assay [5], 3.06 µM; in [6], 3.81 µM; in assay [7], 12.5 µM. Further, the GI50 in assay [8] is 14.9 µM; in assay [10] it was 4.95 µM. The TGI in assay [1] is 13.8 µM; in assay [2], 10.7 µM; in assay [3], 18.4 µM; in assay [5] it was greater than 100 µM; in assay [6] it was 18.4 µM; in [7], 25.5 µM. Also, the TGI in [8] stood at 32.1 µM; in assay [10] it was 19.1 µM.

For `COc1ccccc1C1=C(Nc2ccccc2)C(=O)NC1=O`, the GI50 in assay [1] was greater than 25 µM; in [2] it was greater than 25 µM; in assay [3], greater than 23.8 µM; in assay [4] it was 24.5 µM; in assay [6], greater than 25 µM; in assay [7], greater than 25 µM. Besides, the values for the GI50 in [8] and in [9] were greater than 25 µM and greater than 18.9 µM, respectively. The TGI in assay [1], in assay [2], in [3], in assay [4], in [6] and in assay [7] was greater than 25 µM throughout. Also, the TGI in assay [8] and in [9] was greater than 25 µM in each case.

With `COc1cccc(CSCC(=O)O)c1`, the TGI in assay [1], in [2], in assay [3], in [4], in assay [6] and in assay [7] was greater than 100 µM in each case. In addition, the TGI in assay [8], in assay [9] and in assay [10] was greater than 100 µM each time.

Take `CC(=O)N1N=C(c2ccc(Nc3ccnc4cc(Cl)ccc34)cc2)CC1c1ccc(Cl)cc1` (stereo not given): the GI50 in assay [1] is greater than 100 µM; in assay [2] it was greater than 100 µM; in assay [3] it was 6.59 µM; in [4], 38.8 µM; in assay [6] it was greater than 100 µM; in assay [7] it was 3.33 µM. In addition, the GI50 was 0.566 µM in [8], 5.93 µM in [9] and greater than 100 µM in assay [10]. For the same molecule, the TGI in assay [1], in assay [2], in assay [3], in [4], in [6] and in [7] was greater than 100 µM throughout. Moreover, the TGI in assay [8], in assay [9] and in assay [10] was greater than 100 µM in each case.

Take `S=C(Nc1ccc(N=Nc2ccccc2)cc1)SCc1ccccc1`: the TGI in assay [1] was found to be 43.7 µM; in [3] it was 30.6 µM; in [4] it was 31.9 µM; in [5], 36.1 µM; in assay [6], 44.5 µM; in assay [7], 28.3 µM. The TGI in assay [8] is 36.4 µM; in assay [9], 42.1 µM; in assay [10], 33.3 µM.

With `Cc1cc(S(=O)(=O)/N=C/N(C)C)c(SC(=O)c2ccc(Cl)cc2)cc1Cl`, the GI50 in assay [2] was 48.6 µM; in assay [3], 39.1 µM; in assay [4], 24.1 µM; in assay [5] it was 32.4 µM; in [6], 27.6 µM; in assay [7], 19.2 µM. Also, the GI50 in assay [8] was 25.1 µM; in assay [9], 55.9 µM; in assay [10] it was greater than 100 µM. The TGI is greater than 100 µM in [2]; greater than 100 µM in assay [3]; 59.3 µM in assay [4]; greater than 100 µM in assay [5]; 72.3 µM in assay [6]; 37 µM in assay [7]. Moreover, the TGI in assay [8] is 70.4 µM; in assay [9], greater than 100 µM; in [10], greater than 100 µM.

`Cc1cccc(C(C)C)c1N1C(=O)C(=O)C(c2nc3ccccc3o2)C(=O)C1=O`: the TGI in assay [1] is greater than 100 µM; in assay [2], greater than 100 µM; in assay [3], greater than 100 µM; in assay [4], greater than 100 µM; in [5] it was 63 µM; in [6] it was greater than 100 µM. Also, the TGI in assay [7], in assay [9] and in [10] was greater than 100 µM in each case.

For the molecule `NC(=O)c1ccccc1NC(=O)C(=O)Cc1nc2ccccc2[nH]c1=O`, the TGI in assay [1], in assay [2], in [3], in assay [4], in assay [5] and in [6] was greater than 100 µM in each case. The TGI in assay [7], in assay [9] and in assay [10] was greater than 100 µM in each case.

For the molecule `COC(=O)C(=CNC(N)=O)C(=O)OC`, the TGI in assay [2], in [3], in assay [4], in assay [5], in assay [6] and in assay [7] was greater than 100 µM in each case. The TGI in assay [8], in [9] and in assay [10] was greater than 100 µM throughout.

With `O=C(O)C1CCCCC1c1c2ccc(=O)c(O)c-2oc2c(O)c(O)ccc12` (stereo not given), the TGI in [1] was greater than 100 µM; in [2] it was greater than 100 µM; in assay [3] it was greater than 100 µM; in [4] it was 28.4 µM; in assay [5] it was 3.11 µM; in [6] it was 47.7 µM. The results for the TGI in assay [8], in [9] and in assay [10] were 44.5 µM, greater than 100 µM and greater than 100 µM, respectively.

On to `CC(=O)c1c(CN(C)c2ccccc2)n([O-])c2ccccc2[n+]1=O`, for which the GI50 in [1] is 28.1 µM; in [2], 31.9 µM; in assay [3], 29.6 µM; in assay [4] it was 27.9 µM; in assay [5], 23 µM; in assay [6], 21 µM. Moreover, the GI50 is 31.3 µM in [7], 16.2 µM in [9] and 89.2 µM in assay [10]. Besides, the TGI was greater than 100 µM in assay [1]; greater than 100 µM in assay [2]; greater than 100 µM in assay [3]; greater than 100 µM in assay [4]; 96.7 µM in assay [5]; greater than 100 µM in assay [6]. The TGI was greater than 100 µM in assay [7], 32.9 µM in assay [9] and greater than 100 µM in [10].

On to `O=C(CC1(O)C(=O)Nc2ccc(Br)cc21)c1ccc(Cl)cc1Cl` (stereo not given), for which the TGI in assay [1] is greater than 100 µM; in [2], greater than 100 µM; in [3] it was greater than 100 µM; in assay [4], greater than 100 µM; in [5], 57.1 µM; in [6] it was greater than 100 µM. The TGI in assay [7], in [9] and in assay [10] was greater than 100 µM throughout.

As to `O=[N+]([O-])c1ccc(Oc2nc(Nc3ccc(O[C@H]4CO[C@H]5[C@@H]4OC[C@@H]5O)c(Cl)c3)ncc2F)c(Cl)c1`, the GI50 in assay [1] is 0.669 µM; in assay [2], 2.33 µM; in assay [3], 0.41 µM; in [5] it was 0.718 µM; in assay [6], 1.38 µM; in assay [7], 2.37 µM. Besides, the figures for the GI50 in assay [8], in [9] and in assay [10] were 1.2 µM, 1.42 µM and 1.78 µM, respectively. The TGI in assay [1] amounted to 2.38 µM; in assay [2], 16.8 µM; in assay [3], 2.22 µM; in [5] it was 7.2 µM; in [6] it was 12.6 µM; in assay [7], 10.7 µM. In addition, the TGI in assay [8] worked out at 3.5 µM; in [9], 3.78 µM; in assay [10] it was 4.27 µM.

With `O=[N+]([O-])c1ccc(Cl)c(C2CC(c3cccc4ccccc34)=Nc3ccccc3S2)c1` (stereo not given), the TGI in assay [1] is greater than 78.9 µM; in assay [2], greater than 100 µM; in [3], greater than 100 µM; in assay [4], 38.7 µM; in assay [5] it was greater than 64.7 µM; in assay [6] it was greater than 66.7 µM. Further, the TGI in [7], in [9] and in assay [10] was greater than 100 µM throughout.
